Reference: patent US8114408B2 (priority 2007, dated 2012)
Several values for one entry are separate records, joined by “and”; a condition that tells them apart may be missing. Equal values may be shown once.

Test system: antibodies to pathogenic Newcastle disease virus
Format: binding, chicken

**Q.** How did the “number of positive chickens/number of tested chickens” value turn out when 3 (RRQRRF) [compound 3] was run?
**A.** Its value is 1/5(0.81) and 0/5(0.70) and 4/4(2.45).
